Results as given in patent US20140081017A1, “Histone Deacetylase Inhibitors for Enhancing Activity of Antifungal Agents” (METHYLGENE INC., priority 2012, published 2014).
Values after ≈ are worked out from the molar mass of the structure shown. Read-outs that look alike come from different tables or passages of the source.

Legend:
Candida albicans = experiment: Minimal Inhibitory Concentration (MIC) assay, broth microdilution per CLSI; type: cell-based; details: Candida albicans, read-out: Minimum Inhibitory Concentrations against Yeast Isolates, Candida albicans;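 further: two read times 24 hr and 48 hr of incubation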
Experimental: (§1) The in vitro activities of the inventive compounds (compound(s) herein) against fungi and/or yeasts were determined with isolates Candida albicans, Candida glabrata and Candida parapsilosis. The comparator compounds included fluconazole, caspofungin and amphotericin B.
(§2) The compounds were supplied as a powder, and were dissolved in dimethylsulfoxide (DMSO) the day of assay. Stock solutions were prepared at 10 mg/mL and diluted to a starting stock concentration of 2.56 mg/mL. Amphotericin B was dissolved in DMSO to a stock concentration of 2.56 mg/mL. Fluconazole was dissolved in deionized water to a stock concentration of 2.56 mg/mL. Caspofungin was received as a stock solution of 3.2 mg/mL in DMSO and was diluted to a starting stock concentration of 2.56 mg/mL.
(§3) The test organisms and reference isolates were streaked for isolation on Sabouraud agar medium (yeasts) or potato dextrose agar (fungi). Colonies were picked by swab from the medium and resuspended in the appropriate broth containing cryoprotectant. The suspensions were aliquoted into cryogenic vials and maintained at −80° C.
(§4) Prior to testing, the yeast isolates were streaked from the frozen vials onto Sabouraud dextrose agar. The plates were incubated overnight at 35° C. The fungal isolate was grown on potato dextrose agar slants and was incubated for 7-10 days at room temperature.
(§5) Both yeast and fungal isolates were tested in RPMI medium buffered with 0.165 M MOPS (3-(N-morpholino)propanesulfonic acid). The pH of the medium was adjusted to 7.0 with 1 N NaOH. The medium was sterile filtered using a 0.2 um PES (polyethersulfone) filter and stored at 4° C. until used.
(§6) The MIC assay method followed the procedure described by the Clinical and Laboratory Standards Institute (CLSI; 1, 2, 3) and employed automated liquid handlers to conduct serial dilutions and liquid transfers. Automated liquid handlers included the Multidrop 384 (Labsystems, Helsinki, Finland), Biomek 2000 and Biomek FX (Beckman Coulter, Fullerton Calif.). The wells in columns 2-12 in standard 96-well microdilution plates (Costar 3795) were filled with 150 ul of 100% DMSO. These would become the ‘mother plates’ from which ‘daughter’ or test plates would be prepared. The compounds (300 uL at 40× the desired top concentration in the test plates) were dispensed into the appropriate well in Column 1 of the mother plates. The Biomek 2000 was used to make serial 1:1 dilutions through Column 11 in the “mother plate”. The wells of Column 12 contained no compounds and were the organism growth control wells.
(§7) The daughter plates were loaded with 185 uL per well of RPMI described above using the Multidrop 384. The daughter plates were prepared using the Biomek FX which transferred 5 μL of the compound solution from each well of a mother plate to the corresponding well of the daughter plate in a single step.
(§8) Standardized inoculum of each organism was prepared per CLSI methods. For yeast isolates, colonies were picked from the streak plate and a suspension was prepared in 0.85% saline. For the fungal isolate, 1 mL of 0.85% saline was dispensed onto the potato dextrose agar slant that had been inoculated 7-10 days previously. Using a swab, a suspension of the fungus was made. After a short time to allow the heavy particles to settle out, a small quantity of the supernatant was dispensed into 0.85% saline and the suspension adjusted to equal a 0.5 McFarland turbidity standard. Both yeast and fungal isolates were diluted 1:100 in RPMI and then transferred to compartments of sterile reservoirs divided by length (Beckman Coulter). The Biomek 2000 was used to inoculate the plates. Daughter plates were placed on the Biomek 2000 work surface reversed so that inoculation took place from low to high compound concentration. The Biomek 2000 delivered 10 μL of standardized inoculum into each well. Thus, the wells of the daughter plates ultimately contained 185 uL of RPMI, 5 uL of the compound solution, and 10 uL of inoculum. […]

Candida glabrata = experiment: as above; type: cell-based; details: Nakaseomyces glabratus, read-out: Minimum Inhibitory Concentrations against Yeast Isolates, Candida glabrata;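 further: two read times 24 hr and 48 hr of incubation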
Experimental: as §1, §2, §3, §4, §5, §6, §7, §8

Candida parapsilosis = experiment: as above; type: cell-based; details: Lodderomyces parapsilosis, read-out: Minimum Inhibitory Concentrations against Yeast Isolates, Candida parapsilosis;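 further: two read times 24 hr and 48 hr of incubation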
Experimental: as §1, §2, §3, §4, §5, §6, §7, §8

C. glabrata = experiment: Checkerboard FIC assay in combination with fluconazole (MIC alone and in combination, FICI); type: cell-based, Candida glabrata; details: for FICI of combination resulting in fluconazole MIC of: 2 ug/mL / FICI of combination resulting in fluconazole MIC of: 4 ug/mL / FICI of combination resulting in fluconazole MIC of: 8 ug/mL: FICI calculated using a fluconazole MIC of 16 μg/mL; for FICI of combination resulting in fluconazole MIC of: 2 ug/mL (value in parenthesis) / FICI of combination resulting in fluconazole MIC of: 4 ug/mL (value in parenthesis) / FICI of combination resulting in fluconazole MIC of: 8 ug/mL (value in parenthesis): FICI using a fluconazole MIC of 128 μg/mL; for MIC: Nakaseomyces glabratus; for Multiple of compound MIC to synergize fluconazole MIC to 2 ug/mL / Multiple of compound MIC to synergize fluconazole MIC to 4 ug/mL / Multiple of compound MIC to synergize fluconazole MIC to 8 ug/mL: concentration in combination as multiple of the compound's MIC alone; for Multiple of compound MIC to synergize fluconazole MIC to 2 ug/mL: fluconazole MIC 2 ug/mL; for Multiple of compound MIC to synergize fluconazole MIC to 4 ug/mL: fluconazole MIC 4 ug/mL; for Multiple of compound MIC to synergize fluconazole MIC to 8 ug/mL: fluconazole MIC 8 ug/mL; for Concentration of Methylgene compound to synergize fluconazole MIC to 2 ug/mL / Concentration of Methylgene compound to synergize fluconazole MIC to 4 ug/mL / Concentration of Methylgene compound to synergize fluconazole MIC to 8 ug/mL: in combination with fluconazole; for Concentration of Methylgene compound to synergize fluconazole MIC to 2 ug/mL: fluconazole MIC lowered to 2 ug/mL; for Concentration of Methylgene compound to synergize fluconazole MIC to 4 ug/mL: fluconazole MIC lowered to 4 ug/mL; for Concentration of Methylgene compound to synergize fluconazole MIC to 8 ug/mL: fluconazole MIC lowered to 8 ug/mL
Experimental: The ability of the compounds to synergize with azoles against C. glabrata was evaluated by the checkerboard assay, a common laboratory method used to evaluate synergy, antagonism, and indifference using fractional inhibitory concentrations (FICs) and FIC indices (FICI).
The test compounds were supplied as a powder and dissolved in dimethylsulfoxide (DMSO) on the day of assay. Stock solutions were prepared at 640 ug/mL. Fluconazole was dissolved in deionized water to a stock concentration of 320 ug/mL. All test articles were in solution under these conditions.
as §3, §4, §5
FIC values were determined using a broth microdilution method (CLSI; 1, 3). To prepare the test plates, automated liquid handlers (Multidrop 384, Labsystems, Helsinki, Finland; Biomek 2000 and Biomek FX, Beckman Coulter, Fullerton Calif.) were used to conduct serial dilutions and liquid transfers.
The wells of standard 96-well microdilution plates (Costar 3795) were filled with 150 uL of DMSO in columns 2-12. Three hundred microliters of each test compound was added to each well in Column 1 of the plates. The Biomek 2000 was used to make eleven 2-fold serial dilutions in each of these “test compound mother” plates. The wells of the “fluconazole mother plates” were filled with 150 uL of sterile water in rows B-H. Row A of these plates was filled with 300 uL of the fluconazole stock solution. Serial 2-fold dilutions were then prepared from top to bottom by hand, using a multichannel pipette in rows B-G. The “daughter plates” were loaded with 180 uL of RPMI using the Multidrop 384. The Biomek FX was used to transfer 5 uL of compound solution from each well of a fluconazole mother plate to the corresponding well in all of the daughter plates in a single step. Then the Biomek FX was used to transfer 5 uL of compound solution from each well of a test compound mother plate to the corresponding well of the corresponding test compound daughter plate (already containing fluconazole at the appropriate concentrations) in a single step. Row H and Column 12 each contained serial dilutions of the test agent and fluconazole alone, respectively, for determination of the MIC.
Standardized inoculum of each organism was prepared per CLSI methods (CLSI; 1, 3). For yeast isolates, colonies were picked from the primary plate and a suspension was prepared in 0.85% saline to equal a 0.5 McFarland turbidity standard. For the fungal isolate, 1 mL of 0.85% saline was dispensed onto a potato dextrose agar slant onto which the isolate had been inoculated 7-10 days previously. Using a swab, a suspension of the fungus was made. After a short time to allow the heavy particles to settle out, a small quantity of the supernatant was dispensed into 0.85% saline and the suspension was adjusted to equal a 0.5 McFarland turbidity standard. Both yeast and fungal isolates were diluted 1:100 in RPMI and then transferred to compartments of sterile reservoirs divided by length (Beckman Coulter). The Biomek 2000 was used to inoculate the plates. […]

[1] = 24 hr reading (first value of cell 24 hr/48 hr)
[2] = 48 hr reading (second value of cell 24 hr/48 hr)
[3] = MIC of the example compound alone against C. glabrata in the checkerboard assay, approximately 48 hr, read-out: Methylgene MIC
[4] = test compound alone, C. glabrata, approx. 48 hr at 35° C., read-out: Compound MIC

MIC (Candida albicans; [1]) [µg/mL] | MIC (Candida albicans; [2]) [µg/mL] | MIC (Candida glabrata; [1]) [µg/mL] | MIC (Candida glabrata; [2]) [µg/mL] | MIC (Candida parapsilosis; [1]) [µg/mL] | MIC (Candida parapsilosis; [2]) [µg/mL] | FICI of combination resulting in fluconazole MIC of: 2 ug/mL (C. glabrata; C. glabrata) | FICI of combination resulting in fluconazole MIC of: 4 ug/mL (C. glabrata; C. glabrata) | FICI of combination resulting in fluconazole MIC of: 8 ug/mL (C. glabrata; C. glabrata) | FICI of combination resulting in fluconazole MIC of: 2 ug/mL (value in parenthesis) (C. glabrata; C. glabrata) | FICI of combination resulting in fluconazole MIC of: 4 ug/mL (value in parenthesis) (C. glabrata; C. glabrata) | FICI of combination resulting in fluconazole MIC of: 8 ug/mL (value in parenthesis) (C. glabrata; C. glabrata) | MIC (C. glabrata; [3]) [µg/mL] | MIC (C. glabrata; [4]) [µg/mL] | Multiple of compound MIC to synergize fluconazole MIC to 2 ug/mL (C. glabrata) | Multiple of compound MIC to synergize fluconazole MIC to 4 ug/mL (C. glabrata) | Multiple of compound MIC to synergize fluconazole MIC to 8 ug/mL (C. glabrata) | Concentration of Methylgene compound to synergize fluconazole MIC to 2 ug/mL (C. glabrata; C. glabrata) [µg/mL] | Concentration of Methylgene compound to synergize fluconazole MIC to 4 ug/mL (C. glabrata; C. glabrata) [µg/mL] | Concentration of Methylgene compound to synergize fluconazole MIC to 8 ug/mL (C. glabrata; C. glabrata) [µg/mL] | SMILES
0.5 (≈ 1.57 µM) | 0.5 (≈ 1.57 µM) | 0.5 (≈ 1.57 µM) | 0.5 (≈ 1.57 µM) | 0.25 (≈ 0.783 µM) | 0.5 (≈ 1.57 µM) | 0.563 | 0.625 | 0.490 | 0.516 | 0.531 | 0.303 | 0.5 | 0.5 | (½x) | (½x) | (¼x) | 0.25 | 0.25 | 0.12 | O=C(Cc1ccc(CCCCc2ccc(F)cc2F)cc1)NO [Example 3, 2-(4-(4-(2,4-difluorophenyl)butyl)phenyl)-N-hydroxyacetamide]
0.25 (≈ 0.841 µM) | 0.25 (≈ 0.841 µM) | 0.25 (≈ 0.841 µM) | 0.25 (≈ 0.841 µM) | 0.12 (≈ 0.403 µM) | 0.25 (≈ 0.841 µM) | 1.063 | 0.605 | 0.490 | 1.016 | 0.511 | 0.303 | 0.25 | 0.25 | (1x) | (½x) | (¼x) | 0.25 | 0.12 | 0.06 | Cc1ccc(CCCCc2ccc(CC(=O)NO)cc2)cc1 [Example 4, N-hydroxy-2-(4-(4-p-tolylbutyl)phenyl)acetamide]
> 8 | > 8 | 0.5 (≈ 1.39 µM) | 8 (≈ 22.3 µM) | > 8 | > 8 | 0.125 | 0.155 | 0.280 | 0.078 | 0.061 | 0.093 | 4 | 4 | ( 1/16x) | ( 1/16x) | ( 1/16x) | 0.25 | 0.12 | 0.12 | O=C(Cc1ccc(CCCCc2ccc(-c3ccccc3)cc2)cc1)NO [Example 5, 2-(4-(4-(biphenyl-4-yl)butyl)phenyl)-N-hydroxyacetamide]
0.5 (≈ 1.49 µM) | 0.5 (≈ 1.49 µM) | 0.25 (≈ 0.743 µM) | 0.5 (≈ 1.49 µM) | > 4 | > 4 | 0.313 | 0.245 | 0.370 | 0.266 | 0.151 | 0.183 | 1 | 1 | (¼x) | (⅛x) | (⅛x) | 0.25 | 0.12 | 0.12 | Cn1ccc2cc(CCCCc3ccc(CC(=O)NO)cc3)ccc21 [Example 6, N-hydroxy-2-(4-(4-(1-methyl-1H-indol-5-yl)butyl)phenyl) acetamide]
